Data as given in ChEMBL document CHEMBL1142415, “5-tert-butyl-N-pyrazol-4-yl-4,5,6,7-tetrahydrobenzo[d]isoxazole-3-carboxamide derivatives as novel potent inhibitors of Mycobacterium tuberculosis pantothenate synthetase: initiating a quest for new antitubercular drugs” (J Med Chem, 2008).

How the values were obtained:
Pantothenate synthetase = biological target: T1, Pantothenate synthetase (Mycobacterium tuberculosis, UniProt P9WIL5); experiment: Inhibition of Mycobacterium tuberculosis pantothenate synthetase
T1 sequence (P9WIL5 whole entry): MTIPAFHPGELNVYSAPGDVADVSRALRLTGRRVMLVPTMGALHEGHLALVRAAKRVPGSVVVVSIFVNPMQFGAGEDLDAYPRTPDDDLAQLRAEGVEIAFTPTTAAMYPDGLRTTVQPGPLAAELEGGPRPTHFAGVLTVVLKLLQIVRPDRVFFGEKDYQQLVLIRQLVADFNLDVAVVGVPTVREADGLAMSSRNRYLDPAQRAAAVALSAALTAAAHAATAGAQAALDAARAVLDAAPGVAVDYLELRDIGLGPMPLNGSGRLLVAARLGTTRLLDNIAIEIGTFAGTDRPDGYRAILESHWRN

[1] = biological target: T2, Pantothenate synthetase (Mycobacterium tuberculosis) (UniProt P9WIL5); experiment: Inhibition of Mycobacterium tuberculosis pantothenate synthetase at 100 uM
T2 sequence (whole entry): T1 sequence (P9WIL5 whole entry)

[2] = system: Mycobacterium tuberculosis; experiment: Antibacterial activity against Mycobacterium tuberculosis at 128 uM by MABA assay; assay type: functional
[3] = system: Mycobacterium tuberculosis; experiment: Antibacterial activity against Mycobacterium tuberculosis at 128 uM by LORA assay; assay type: functional

SMILES	IC50 (Pantothenate synthetase) [nM]	inhibition [1] [%]	inhibition at 128 µM [2] [%]	inhibition at 128 µM [3] [%]
CC(C)(C)C1CCc2onc(C(=O)Nc3cnn(Cc4ccc(Cl)cc4)c3)c2C1 (centres undefined)	140	98		
CC(C)(C)C1CCc2onc(C(=O)Nc3cnn(Cc4ccc5ccccc5c4)c3)c2C1 (centres undefined)	90	97	43	
CC(C)(C)OC(=O)c1ccc(Cn2cc(NC(=O)c3noc4c3CC(C(C)(C)C)CC4)cn2)cc1 (centres undefined)	250	79		
Cc1ccccc1Cn1cc(NC(=O)c2noc3c2CC(C(C)(C)C)CC3)cn1 (centres undefined)	120	89	46	15
CC(C)(C)C1CCc2onc(C(=O)Nc3cnn(Cc4ccccc4)c3)c2C1 (centres undefined)	97	100	84	62
COC(=O)c1ccc(Cn2cc(NC(=O)c3noc4c3CC(C(C)(C)C)CC4)cn2)cc1 (centres undefined)	160	100	48	0
CC(C)(C)C1CCc2onc(C(=O)Nc3cnn(Cc4ccccc4Br)c3)c2C1 (centres undefined)	140	94	73	24
CC(C)(C)C1CCc2onc(C(=O)Nc3cnn(Cc4ccc(F)cc4)c3)c2C1 (centres undefined)	150	98	0	0
CC(C)(C)C1CCc2onc(C(=O)Nc3cnn(C(=O)c4c(Cl)cc(Cl)cc4Cl)c3)c2C1 (centres undefined)		17	34	26
COc1ccc(Cc2noc(NC(=O)c3noc4c3CC(C(C)(C)C)CC4)c2C(N)=O)cc1 (centres undefined)	7130	79	14	14
CC(C)(C)C1CCc2onc(C(=O)Nc3cnn(Cc4ccc(C(=O)O)cc4)c3)c2C1 (centres undefined)	460	99	41	2
CC(C)(C)C1CCc2onc(C(=O)Nc3cn[nH]c3)c2C1 (centres undefined)	61000	43	60	4
CC(C)(C)C1CCc2onc(C(=O)Nc3cnn(Cc4ccc(F)cc4F)c3)c2C1 (centres undefined)	130	100	56	47
CC(C)(C)C1CCc2onc(C(=O)Nc3cnn(Cc4ccc(C(=O)NCc5ccccc5)cc4)c3)c2C1 (centres undefined)	210	82	54	46
CC(C)(C)C1CCc2onc(C(=O)Nc3cnn(Cc4ccccc4I)c3)c2C1 (centres undefined)	160	84	70	12
O=C(Nc1cnn(Cc2ccc(Cl)cc2Cl)c1)c1noc2c1CCCC2		18	70	53
CC(C)(C)C1CCc2onc(C(=O)O)c2C1 (centres undefined)		12	5	11
CC(C)(C)C1CCc2onc(C(=O)Nc3cnn(Cc4ccc(C(=O)NCCc5ccccc5)cc4)c3)c2C1 (centres undefined)	140	78	19	11
